Reference: patent US8546338B2, “Self-assembling hydrogels based on dicephalic peptide amphiphiles” (Johnson & Johnson Consumer Companies, Inc., priority 2010, dated 2013)
Where “and” joins values, the source holds several entries; their conditions need not be identical. Equal entries are not always repeated.

Assays:
Sprague-Dawley rats = assay: Biocompatibility study, gel injected into intra-gluteal muscle pocket; type: in vivo; conditions: rat, in vivo
Method: A biocompatibility study was performed on Gly-Val-Ala-Val-Ala-Val-Ala-Glu-Gly-Glu (SEQ ID NO: 4), Gly-Phe-Gly-Phe-Gly-Phe-Gly-Glu-Gly-Glu (SEQ ID NO: 5) and Gly-Phe-Gly-Phe-Gly-Phe-Gly-Gln-Gln-Ser (SEQ ID NO: 8) DPAs. Lyophilized DPA powders were e-beam sterilized in 1.5 cc polypropylene cryovials at 15 KGy. Gels were pre-formed in 1 cc syringes by mixing a 4 wt % DPA solution in water for injection in a 1:1 ratio with DMEM followed by immediate aspiration into the syringe. In the case of the formulations with the Glu-Gly-Glu (SEQ ID NO: 27) sequence in the solubility enhancing region, 10 μl of a sterile 100 mg/cc calcium chloride solution was mixed in before aspiration into the syringe. An intra-gluteal muscle pocket was created in Sprague-Dawley rats after which 100 μl of gel was injected using a catheter fitted to the syringe. Subsequently, the pocket was closed with polyglactin 910 sutures sold under the tradename VICRYL (Ethicon, Somerville, N.J.). Tissue was harvested at 3, 7 and 28 days after implantation.

[1] = Gelation experiments: inversion test for self-supporting hydrogels; type: physicochemical; conditions: for Gelation (self-supporting gel on inversion), DMEM: DPA solution in water mixed 1:1 with DMEM; for Gelation (self-supporting gel on inversion), PBS / Gelation (self-supporting gel on inversion), Water: final concentrations 1, 2 and 4 weight percent tested; for Concentration at which gel forms, Water / Gelation (self-supporting gel on inversion), Water: in water; for Concentration at which gel forms, DMEM: mixed with DMEM
How it was run: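 Peptide amphiphile dissolved in ultrapure water at twice final concentration, mixed 1:1 with PBS or DMEM to give 1, 2 or 4 wt%. Gelation scored if the gel held its weight on vial inversion; where none formed, 10 μl of 100 mg/cc CaCl2 was added.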

[2] = Oscillating rheology, strain sweep; type: physicochemical; conditions: 2 wt % gels in DMEM, formed for 30 minutes
Method: Oscillating rheology by the parallel plates method (radius=25 mm) was performed on 400 μl gels to assess the mechanical strengths of gels. Time sweeps were performed to evaluate kinetics of formation at a constant strain rate of 1% and frequency of 1 rad/s. Strain sweeps were performed ranging from 1-100% strain in increments of 2% at a constant frequency of 1 rad/s. Cross-over of G′ and G″ was used to determine the gel point and point of breakdown. Time sweeps were initiated immediately after mixing the solutions that lead to DPA hydrogel formation. In the strain sweeps, the gels were allowed to form on the plate for 30 minutes before the measurement is initiated.
Strains sweeps were performed on 2 wt % Gly-Phe-Gly-Phe-Gly-Phe-Gly-Gln-Gln-Ser (SEQ ID NO: 8), Gly-Phe-Gly-Phe-Gly-Phe-Gly-Gln-Gly-Ser (SEQ ID NO: 12) and Gly-Phe-Gly-Phe-Gly-Phe-Gly-Asn-Asn-Ser (SEQ ID NO: 11) gels in DMEM (FIG. 8). Gels were allowed to form for 30 minutes before the experiment was initiated.

[3] = system: human kidney derived cells (hKDCs); assay: Cell viability of encapsulated hKDCs in DPA gels (Live/Dead); type: cell-based; conditions: 2% DPA gel, after 1, 2 and 3 weeks
Method: The viability and proliferation of cells in the gels was evaluated by encapsulating human kidney derived cells (hKDCs) in the gels. hKDC were isolated as described in US Patent Publication Number 2008/0112939. Cells were thawed from storage and cultured for four days in renal epithelial growth media (REGM) media. After four days, the cells were trypsinized and counted by the Guava ViaCount (Millipore, Billerica, Mass.) methodology. Cells were re-suspended in REGM media at a density of 1,000,000 cells/ml. Encapsulation of the cells in the gels was achieved by adding 100 μl cell suspension to 100 μl of a 4 wt % DPA solution in ultrapure in a 24 well plate, resulting in a final DPA concentration of 2%. The gels were incubated for 1 h at 37° C., 5% CO2 after which 1000 μl media was added on top of the gel. Cells were incubated at 37° C., 5% CO2. Every 3-4 days of culture, 500 μl media was replaced. The cells were cultured for 3 weeks and cells were assessed after 1, 2 and 3 weeks with Live/Dead.

[4] = system: human internal mammary artery derived cells (IMACs); assay: Cell viability of encapsulated IMACs in DPA gels (Live/Dead); type: cell-based; conditions: 2% DPA gel
Method: The viability and proliferation of cells in the gels was evaluated by encapsulating human internal mammary artery derived cells (IMACs) in the gels. IMACs were isolated as described in copending U.S. patent application Ser. No. 12/885,855. Cells were thawed from storage and cultured for four days in advanced DMEM/F12 media. After four days, the cells were trypsinized and counted by the Guava ViaCount (Millipore, Billerica, Mass.) methodology. Cells were re-suspended in advanced DMEM/F12 media at a density of 1,000,000 cells/ml. Encapsulation of the cells in the gels was achieved by adding 100 μl cell suspension to 100 μl of a 4 wt % DPA solution in ultrapure in a 24 well plate, resulting in a final DPA concentration of 2%. The gels were incubated for 1 h at 37° C., 5% CO2 after which 1000 μl media was added on top of the gel. Cells were incubated at 37° C., 5% CO2. Every 3-4 days of culture, 500 μl media was replaced. The cells were cultured for 3 weeks and cells were assessed after 1, 2 and 3 weeks with Live/Dead. […] The IMAC cells appear to have high motility in these gels as evidenced by the channels that they create in the gels.

[5] = listed as Gly-Phe-Gly-Phe-Gly-Phe-Gly-Gln-Gln-Ser(DPA)_ (SEQ ID NO: 8)

Compound: CCCCCCCCCCCCCCCC(=O)NC(C(=O)NCC(=O)N[C@@H](Cc1ccccc1)C(=O)NCC(=O)N[C@@H](Cc1ccccc1)C(=O)NCC(=O)N[C@@H](Cc1ccccc1)C(=O)NCC(=O)N[C@@H](CCC(N)=O)C(=O)N[C@@H](CCC(N)=O)C(=O)N[C@@H](CO)C(=O)O)C(=O)NCC(=O)N[C@@H](Cc1ccccc1)C(=O)NCC(=O)N[C@@H](Cc1ccccc1)C(=O)NCC(=O)N[C@@H](Cc1ccccc1)C(=O)NCC(=O)N[C@@H](CCC(N)=O)C(=O)N[C@@H](CCC(N)=O)C(=O)N[C@@H](CO)C(=O)O [Gly-Phe-Gly-Phe-Gly-Phe-Gly-Gln-Gln-Ser]
- Gross observations (Sprague-Dawley rats): some fluid buildup at day 3
- Behaviour of gel after disruption by vortexing ([1]; 4 wt % in water): reform when left alone
- Time to self-supporting gel ([1]; 4 wt % in water): approx. 5 minutes
- Gelation (self-supporting gel on inversion), DMEM ([1]; no calcium added): Yes and Yes,
- Gelation (self-supporting gel on inversion), DMEM ([1]; no calcium added, listed as Gly-Phe-Gly-Phe-Gly-Phe-Gly-Gln-Gln-Ser(DPA)_ (SEQ ID NO: 8)): Yes,
- Concentration at which gel forms, PBS [1]: 4 wt % and 4%
- Gelation (self-supporting gel on inversion), PBS [1]: Yes and Yes,
- Gelation (self-supporting gel on inversion), PBS [1, 5]: Yes,
- Concentration at which gel forms, PBS [1, 5]: 4%
- Concentration at which gel forms, Water [1]: 4 wt % and 4%
- Gelation (self-supporting gel on inversion), Water [1]: Yes and Yes,
- Gelation (self-supporting gel on inversion), Water [1, 5]: Yes,
- Concentration at which gel forms, Water [1, 5]: 4%
- Concentration at which gel forms, DMEM ([1]; no calcium added): 2%
- Concentration at which gel forms, DMEM ([1]; no supplemental calcium): 2 wt %
- Strain at which gel re-crosses the transition point (breakdown) [2]: 99 % strain
- Strain at which gel re-crosses the transition point (breakdown) ([2]; listed as Gln-Gln-Ser (SEQ ID NO: 28)): ~100 % strain
- Viability of hKDC cells, Live/Dead [3]: very limited numbers of dead cells were detected
- Viability of IMAC cells, Live/Dead ([4]; after 1, 2 and 3 weeks): very limited numbers of dead cells were detected
- Motility of IMAC cells in the gel ([4]; three weeks, channels created in the gels): high motility
